ChEMBL document CHEMBL4414613, “Antibacterial 5α-Spirostane Saponins from the Fruit of Cordyline manners-suttoniae” (J Nat Prod, 2019)
pIC50: −log10 of the molar value. ≈ marks a conversion by molar mass, not a printed value. Calls of active or inactive are those of the source. The rule behind the calls is not given here.

How the values were obtained:
Pseudomonas aeruginosa [1] = assay: Antibacterial activity against Pseudomonas aeruginosa ATCC 10145 at 90 uM incubated for 24 hrs by microdilution assay; format: functional, organism-based
Staphylococcus aureus [2] = assay: Antibacterial activity against Staphylococcus aureus ATCC 29247 incubated for 24 hrs by microdilution assay; format: functional
Klebsiella pneumoniae [3] = assay: Antibacterial activity against Klebsiella pneumoniae ATCC 13883 at 90 uM incubated for 24 hrs by microdilution assay; format: functional, organism-based
Klebsiella pneumoniae [4] = assay: Antibacterial activity against Klebsiella pneumoniae ATCC 12657 at 90 uM incubated for 24 hrs by microdilution assay; format: functional, organism-based
Staphylococcus aureus [5] = assay: Antibacterial activity against Staphylococcus aureus ATCC 25923 incubated for 24 hrs by microdilution assay; format: functional
[6] = test system: Enterobacter cloacae subsp. cloacae; assay: Bactericidal activity against Enterobacter cloacae ATCC 13047 at 90 uM incubated for 24 hrs by microdilution assay; format: functional
Acinetobacter baumannii [7] = assay: Antibacterial activity against Acinetobacter baumannii ATCC 19606 at 90 uM incubated for 24 hrs by microdilution assay; format: functional, organism-based; settings: ATCC 19606 = CIP 70.34 = JCM 6841
Klebsiella aerogenes [8] = assay: Bactericidal activity against Enterobacter aerogenes ATCC 13048 at 90 uM incubated for 24 hrs by microdilution assay; format: functional
Acinetobacter baumannii [9] = assay: Antibacterial activity against Acinetobacter baumannii ATCC 17978 at 90 uM incubated for 24 hrs by microdilution assay; format: functional, organism-based
Enterococcus faecium [10] = assay: Antibacterial activity against Enterococcus faecium ATCC 35667 incubated for 24 hrs by microdilution assay; format: functional
Klebsiella pneumoniae [11] = assay: Bactericidal activity against Klebsiella pneumoniae ATCC 13883 at 90 uM incubated for 24 hrs by microdilution assay; format: functional, organism-based
Pseudomonas aeruginosa [12] = assay: Antibacterial activity against Pseudomonas aeruginosa ATCC 49189 at 90 uM incubated for 24 hrs by microdilution assay; format: functional, organism-based
[13] = Selectivity ratio of IC50 for human HaCaT cells to IC50 for human HDF cells by CellTiter 96 aqueous one solution assay
Klebsiella aerogenes [14] = assay: Antibacterial activity against Enterobacter aerogenes ATCC 13048 at 90 uM incubated for 24 hrs by microdilution assay; format: functional
Enterococcus faecium [15] = assay: Bactericidal activity against Enterococcus faecium ATCC 35667 incubated for 24 hrs by microdilution assay; format: functional; settings: ATCC 35667, 24 h
Pseudomonas aeruginosa [16] = assay: Bactericidal activity against Pseudomonas aeruginosa ATCC 10145 at 90 uM incubated for 24 hrs by microdilution assay; format: functional, organism-based
HaCaT [17] = assay: Cytotoxicity against human HaCaT cells assessed as reduction in cell viability incubated for 4 days by CellTiter 96 aqueous one solution assay; format: cell-based; settings: 96 h
Acinetobacter baumannii [18] = assay: Bactericidal activity against Acinetobacter baumannii ATCC 17978 at 90 uM incubated for 24 hrs by microdilution assay; format: functional, organism-based
Enterococcus faecium [19] = assay: Bactericidal activity against Enterococcus faecium C15 incubated for 24 hrs by microdilution assay; format: functional; settings: C15, 24 h
Staphylococcus aureus [20] = assay: Bactericidal activity against Staphylococcus aureus ATCC 25923 incubated for 24 hrs by microdilution assay; format: functional; settings: ATCC 25923, 24 h
[21] = test system: Enterobacter cloacae subsp. cloacae; assay: Antibacterial activity against Enterobacter cloacae ATCC 13047 at 90 uM incubated for 24 hrs by microdilution assay; format: functional
Staphylococcus aureus [22] = assay: Bactericidal activity against Staphylococcus aureus ATCC 29247 incubated for 24 hrs by microdilution assay; format: functional; settings: ATCC 29247, 24 h
Enterococcus faecium [23] = assay: Antibacterial activity against Enterococcus faecium C15 incubated for 24 hrs by microdilution assay; format: functional
Klebsiella pneumoniae [24] = assay: Bactericidal activity against Klebsiella pneumoniae ATCC 12657 at 90 uM incubated for 24 hrs by microdilution assay; format: functional, organism-based
Acinetobacter baumannii [25] = assay: Bactericidal activity against Acinetobacter baumannii ATCC 19606 at 90 uM incubated for 24 hrs by microdilution assay; format: functional, organism-based; settings: ATCC 19606 = CIP 70.34 = JCM 6841
Pseudomonas aeruginosa [26] = assay: Bactericidal activity against Pseudomonas aeruginosa ATCC 49189 at 90 uM incubated for 24 hrs by microdilution assay; format: functional, organism-based
NHDF [27] = assay: Cytotoxicity against human HDF cells assessed as reduction in cell viability incubated for 7 days by CellTiter 96 aqueous one solution assay; format: functional, cell-based; settings: 168 h
Staphylococcus aureus [28] = assay: Bactericidal activity against Staphylococcus aureus ATCC 29247 up to 86.8 uM incubated for 24 hrs by microdilution assay; format: functional, organism-based
Enterococcus faecium [29] = assay: Bactericidal activity against Enterococcus faecium ATCC 35667 at 90 uM incubated for 24 hrs by microdilution assay; format: functional, organism-based
Staphylococcus aureus [30] = assay: Bactericidal activity against Staphylococcus aureus ATCC 25923 at 90 uM incubated for 24 hrs by microdilution assay; format: functional, organism-based
Enterococcus faecium [31] = assay: Bactericidal activity against Enterococcus faecium ATCC 35667 up to 86.8 uM incubated for 24 hrs by microdilution assay; format: functional, organism-based
Enterococcus faecium [32] = assay: Bactericidal activity against Enterococcus faecium C15 up to 86.8 uM incubated for 24 hrs by microdilution assay; format: functional, organism-based
Staphylococcus aureus [33] = assay: Bactericidal activity against Staphylococcus aureus ATCC 25923 up to 86.8 uM incubated for 24 hrs by microdilution assay; format: functional, organism-based
Staphylococcus aureus [34] = assay: Bactericidal activity against Staphylococcus aureus ATCC 29247 at 90 uM incubated for 24 hrs by microdilution assay; format: functional, organism-based
Enterococcus faecium [35] = assay: Bactericidal activity against Enterococcus faecium C15 at 90 uM incubated for 24 hrs by microdilution assay; format: functional, organism-based
Staphylococcus aureus [36] = assay: Antibacterial activity against Staphylococcus aureus ATCC 25923 at 90 uM incubated for 24 hrs by microdilution assay; format: functional, organism-based
Staphylococcus aureus [37] = assay: Antibacterial activity against Staphylococcus aureus ATCC 29247 at 90 uM incubated for 24 hrs by microdilution assay; format: functional, organism-based
Enterococcus faecium [38] = assay: Antibacterial activity against Enterococcus faecium ATCC 35667 at 90 uM incubated for 24 hrs by microdilution assay; format: functional, organism-based
HaCaT [39] = assay: Cytotoxicity against human HaCaT cells assessed as reduction in cell viability at 100 uM incubated for 4 days by CellTiter 96 aqueous one solution assay; format: cell-based; settings: 96 h
Enterococcus faecium [40] = assay: Antibacterial activity against Enterococcus faecium C15 at 90 uM incubated for 24 hrs by microdilution assay; format: functional, organism-based
NHDF [41] = assay: Cytotoxicity against human HDF cells assessed as reduction in cell viability at 100 uM incubated for 7 days by CellTiter 96 aqueous one solution assay; format: functional, cell-based

Compound	Activity (Pseudomonas aeruginosa [1])	Activity (Klebsiella pneumoniae [3])	Activity (Klebsiella pneumoniae [4])	Activity [6]	Activity (Acinetobacter baumannii [7])	Activity (Klebsiella aerogenes [8])	Activity (Acinetobacter baumannii [9])	Activity (Klebsiella pneumoniae [11])	Activity (Pseudomonas aeruginosa [12])	Ratio IC50 [13]	Activity (Klebsiella aerogenes [14])	Activity (Pseudomonas aeruginosa [16])	Activity (Acinetobacter baumannii [18])	Activity [21]	Activity (Klebsiella pneumoniae [24])	Activity (Acinetobacter baumannii [25])	Activity (Pseudomonas aeruginosa [26])	Activity (Enterococcus faecium [29])	Activity (Staphylococcus aureus [30])	Activity (Staphylococcus aureus [34])	further results
C[C@@H]1CC[C@]2(OC1)O[C@H]1C[C@H]3[C@@H]4CC[C@H]5C[C@@H](O)C[C@@H](O[C@@H]6O[C@H](C)[C@H](O)[C@H](O)[C@H]6O)[C@]5(C)[C@H]4CC[C@]3(C)[C@H]1[C@@H]2C	inactive	inactive	inactive	inactive	inactive	inactive	inactive	inactive	inactive	3 - 11	inactive	inactive	inactive	inactive	inactive	inactive	inactive				MIC75 (Staphylococcus aureus [2]): 21.6 µM (≈ 12.5 µg/mL); MIC75 (Staphylococcus aureus [5]): 21.6 µM (≈ 12.5 µg/mL); MIC75 (Enterococcus faecium [10]): 21.6 µM (≈ 12.5 µg/mL); MBC (Enterococcus faecium [15]): 43.2 µM (≈ 25 µg/mL); pIC50 (HaCaT [17]): 4.74; MBC (Enterococcus faecium [19]): 43.2 µM (≈ 25 µg/mL); MBC (Staphylococcus aureus [20]): 21.6 µM (≈ 12.5 µg/mL); MBC (Staphylococcus aureus [22]): 21.6 µM (≈ 12.5 µg/mL); MIC75 (Enterococcus faecium [23]): 21.6 µM (≈ 12.5 µg/mL); pIC50 (NHDF [27]): 5.37
C=C1CC[C@]2(OC1)O[C@H]1C[C@H]3[C@@H]4CC[C@H]5C[C@@H](O)C[C@@H](O[C@@H]6O[C@H](C)[C@H](O)[C@H](O)[C@H]6O)[C@]5(C)[C@H]4CC[C@]3(C)[C@H]1[C@@H]2C	inactive	inactive	inactive	inactive	inactive	inactive	inactive	inactive	inactive	3 - 11	inactive	inactive	inactive	inactive	inactive	inactive	inactive	inactive	inactive	inactive	Activity (Staphylococcus aureus [28]): inactive; MIC75 (Staphylococcus aureus [2]): 5.4 µM (≈ 3.11 µg/mL); MIC75 (Staphylococcus aureus [5]): 5.4 µM (≈ 3.11 µg/mL); Activity (Enterococcus faecium [31]): inactive; Activity (Enterococcus faecium [32]): inactive; MIC75 (Enterococcus faecium [10]): 21.7 µM (≈ 12.5 µg/mL); Activity (Staphylococcus aureus [33]): inactive; pIC50 (HaCaT [17]): 4.62; Activity (Enterococcus faecium [35]): inactive; MIC75 (Enterococcus faecium [23]): 21.7 µM (≈ 12.5 µg/mL); pIC50 (NHDF [27]): 5.38
C[C@@H]1CC[C@]2(OC1)O[C@H]1C[C@H]3[C@@H]4CC[C@H]5C[C@@H](O)C[C@@H](O[C@@H]6OC[C@H](O)[C@H](O)[C@H]6O)[C@]5(C)[C@H]4CC[C@]3(C)[C@H]1[C@@H]2C	inactive	inactive	inactive	inactive	inactive	inactive	inactive	inactive	inactive	3 - 11	inactive	inactive	inactive	inactive	inactive	inactive	inactive	inactive	inactive	inactive	Activity (Staphylococcus aureus [36]): inactive; Activity (Staphylococcus aureus [37]): inactive; Activity (Enterococcus faecium [38]): inactive; Activity (Enterococcus faecium [35]): inactive; Activity (HaCaT [39]): Not Active; Activity (Enterococcus faecium [40]): inactive; Activity (NHDF [41]): inactive
C=C1CC[C@]2(OC1)O[C@H]1C[C@H]3[C@@H]4CC[C@H]5C[C@@H](O)C[C@@H](O[C@@H]6OC[C@H](O)[C@H](O)[C@H]6O)[C@]5(C)[C@H]4CC[C@]3(C)[C@H]1[C@@H]2C	inactive	inactive	inactive	inactive	inactive	inactive	inactive	inactive	inactive	3 - 11	inactive	inactive	inactive	inactive	inactive	inactive	inactive	inactive	inactive	inactive	Activity (Staphylococcus aureus [36]): inactive; Activity (Staphylococcus aureus [37]): inactive; Activity (Enterococcus faecium [38]): inactive; Activity (Enterococcus faecium [35]): inactive; Activity (HaCaT [39]): Not Active; Activity (Enterococcus faecium [40]): inactive; Activity (NHDF [41]): inactive
